{"source": "patent US20060110449A1", "about": "“Pharmaceutical composition” (priority 2004, published 2006)", "key": {"[1]": {"test_system": "subjects with Seasonal Allergic Rhinitis (SAR) and Post-Nasal Drip", "assay": "Phase II randomized, double-blind, placebo controlled study: symptom scores (post nasal drip, anterior rhinorrhea, total symptom score)", "conditions": "for least square mean change from baseline in the average AM/PM PRIOR post nasal drip score, percent / least square mean change from baseline in the average AM/PM PRIOR post nasal drip score: 7-day Treatment Phase, Oxy 5 mg BID, combinations given concurrently BID; for least square mean change from baseline in the average AM/PM PRIOR post nasal drip score: all randomized subjects; for anterior rhinorrhea treatment difference vs. placebo: key secondary efficacy variable, BID, DL 2.5 mg, Oxy 5 mg", "description": "(§1) The total target enrollment was 500 subjects with 100 per arm. The study consisted of a 7-day Treatment Phase.\nThe primary efficacy variable was the change from baseline in the average AM/PM PRIOR post nasal drip score over the Treatment Phase of 7 days. The analysis was based on a main effect analysis of variance (ANOVA), which extracted sources of variation due to treatment and center. […] Pairwise treatment comparisons were examined using the 95% confidence intervals of the treatment differences at an unadjusted 2-sided alpha-level of 0.05.\nAfter the examination of post nasal drip, the key secondary efficacy variable, anterior rhinorrhea, was examined in the same manner.\nThere were 38 subjects excluded from the efficacy evaluable subset. A majority of these subjects were excluded due to insufficient efficacy data. Determination of evaluability was perfomed prior to unblinding the database. Though the treatment duration specified in the protocol was 7 days, about 70% of subjects also completed their diary on the AM of Day 8 since the final office visit was scheduled on that day. Therefore, the AM Day 8 data were included in the calculation of the one-week average.\nThe primary efficacy variable was the change from baseline in the average AM/PM PRIOR post nasal drip score over the Treatment Phase of 7 days."}, "[2]": {"conditions": "DL 2.5 mg BID, Oxy 5 mg BID, combinations BID; 7 days", "description": "as §1"}, "[3]": {"test_system": "secretions of natural tear components", "conditions": "preclinical testing, reportedly; cited from earlier work"}, "[4]": {"test_system": "symptoms most closely associated with chronic nasal congestion (e.g., stuffy nose)", "conditions": "reportedly; cited from earlier work"}}}
{"smiles": "CCN(CC)CC#CCOC(=O)C(O)(c1ccccc1)C1CCCCC1", "note": "(centres unmarked) [Oxy, Oxybutynin]", "values": [{"measurement": "least square mean change from baseline in the average AM/PM PRIOR post nasal drip score, percent", "setting": "[1]; DL 2.5 mg BID", "value": "−17.8", "unit": "%"}, {"measurement": "least square mean change from baseline in the average AM/PM PRIOR post nasal drip score", "setting": "[1]; DL 2.5 mg BID", "value": "−0.49"}, {"measurement": "anterior rhinorrhea treatment difference vs. placebo", "setting": "[1]; 7 days", "value": 0.04, "unit": "points"}, {"measurement": "discontinuation rate from the treatment phase", "setting": "[2]", "value": 5.56, "unit": "%"}, {"measurement": "percentage of subjects reporting any treatment emergent adverse events", "setting": "[2]", "value": 30.6, "unit": "%"}, {"measurement": "percentage of subjects reporting dry mouth", "setting": "[2]", "value": 13.9, "unit": "%"}, {"measurement": "subjects reporting any treatment emergent adverse events", "setting": "[2]", "value": 33, "unit": "subjects"}, {"measurement": "subjects reporting dry mouth", "setting": "[2]", "value": 15, "unit": "subjects"}]}
{"smiles": "O=c1ccn([C@@H]2O[C@H](COP(=O)(O)OP(=O)(O)OP(=O)(O)OP(=O)(O)OC[C@H]3O[C@@H](n4ccc(=O)[nH]c4=O)[C@H](O)[C@@H]3O)[C@@H](O)[C@H]2O)c(=O)[nH]1", "note": "[diquafosol, Diquafosol tetrasodium]", "values": [{"measurement": "secretions of natural tear components", "setting": "[3]", "value": "increased"}]}
{"smiles": "Clc1ccc2c(c1)CCc1cccnc1C2=C1CCNCC1", "note": "[DL, desloratadine]", "values": [{"measurement": "least square mean change from baseline in the average AM/PM PRIOR post nasal drip score, percent", "setting": "[1]; DL 2.5 mg BID", "value": "−24.8", "unit": "%"}, {"measurement": "least square mean change from baseline in the average AM/PM PRIOR post nasal drip score", "setting": "[1]; DL 2.5 mg BID", "value": "−0.68"}, {"measurement": "total symptom score excluding post nasal drip, treatment difference vs. placebo", "setting": "[1]; DL 2.5 mg BID, 7 days", "value": 0.71, "unit": "point"}, {"measurement": "anterior rhinorrhea treatment difference vs. placebo", "setting": "[1]; 7 days", "value": 0.03, "unit": "points"}]}
{"smiles": "Oc1cccc(Nc2ncc(F)c(Nc3cccc(O)c3)n2)c1", "note": "[R112]", "values": [{"measurement": "absolute difference over placebo", "setting": "[4]", "value": 9, "unit": "%"}, {"measurement": "improvement from baseline measurements (prior to drug initiation)", "setting": "[4]", "value": "up to 38%"}, {"measurement": "relative improvement over placebo", "setting": "[4]", "value": "greater than 20%"}, {"measurement": "symptoms most closely associated with chronic nasal congestion (e.g., stuffy nose), over placebo", "setting": "[4]", "value": "improved"}]}
